According to patent publication US20240172749A1, “USE OF NITRAPYRIN FOR IMPROVED PLANT GROWTH AND DEVELOPMENT” (Verdesian Life Sciences U.S., LLC, priority 2021, published 2024):

Experiments:
[1] = compositions and/or formulations containing high amounts of water; cited from earlier work
corn seedlings = experiment: Greenhouse study of nitrapyrin as a biostimulant, shoot dry weight (biomass) of corn seedlings; type: in vivo; conditions: applied at lower concentrations/label rates than typically employed as nitrification inhibitor (equal to or lower than 45.4 grams of nitrapyrin per acre)
Protocol: Com seeds were sown in 3-liter pots filled with a peat-vermiculite-perlite potting mix. Plants were grown for a period of 14 days in a greenhouse under standard conditions (28/32° C. night/day temperatures, 16-hour photoperiod, 55% relative humidity, 800 uMol/m2/s light intensity). Seven days after planting, treatments were applied using a 3×3 factorial treatment design (3 nitrapyrin rates×3 fertilizer treatments), with 4 biological replications per treatment combination. Plants were arranged in a completely randomized layout on the greenhouse bench. Nitrapyrin rates were: 0.0 g/plant (acetonitrile only), 0.0005 g/plant and 0.00073 g/plant, with each treatment unit dissolved in 5 mL of acetonitrile. Fertilizer treatments were: No fertilizer (water only), 15-5-15, and 6-24-6. Fertilizers were delivered at a rate of 100 ppm nitrogen, 3 times/week beginning on day 7 through day 14. Nitrapyrin treatments were given only once on day 7. Plants were monitored for signs of phytotoxicity during the experiment. On day 14, plants were harvested and dried in a forced-air oven. Dried plants were weighed individually for biomass. For results see FIG. 1.
A second experiment was performed with the same execution as described above, but with additional treatment groups and additional growing time (21 days). […]

Clc1cccc(C(Cl)(Cl)Cl)n1 [nitrapyrin, Nitrapyrin]
degradation of nitrapyrin [1]: rapid degradation
biostimulant properties (improvement in plant growth and/or vigor) (corn seedlings): can exhibit biostimulant properties
